For test [1], the system named is hyaluronan synthase 3 (HAS3). The experiment in a line: HAS3 gene expression by RT-PCR in normal human epidermal keratinocytes incubated with actives. To be noted: NHEK, 24 hours, 0.05 wt % of LCC in medium. It counts as cell-based. As to the method: (§1) The normal human epidermal keratinocytes (NHEK) (Biocell, Xi'an, China) were incubated in medium together with or without actives for 24 hours. After incubation, the total RNA for each NHEK was extracted using RNAiso Plus (TaKaRa, Cat: 9108; Cat: RR036) according to manufacturer's protocol.
(§2) The extracted RNA was quantified using Nanodrop spectrometer (Thermo Fisher Scientific, Waltham, MA, US) and reverse transcribed to generate the template cDNA using the PrimeScript II 1st Strand cDNA synthesis kit according to manufacturer's protocol. Amplification of the gene encoding the hyaluronan synthase 3 (HAS3) and CD44 was performed with RT-PCR reagent (SYBR® Premix Ex Taq™) on the ABI Vii 7 Real-Time PCR Systems (Applied Biosystems, Thermo fisher scientific, Carlsbad, CA, USA). The beta-actin gene was selected as the housekeeping gene and all data on relative expression of the target genes was normalized to beta-actin. The fold changes in expression were calculated relative to the blank control (medium having no active).

Test [2] deals with CD44. In words: CD44 gene expression by RT-PCR in normal human epidermal keratinocytes incubated with actives. It counts as cell-based. The settings on record: NHEK, 24 hours, 0.05 wt % of LCC in medium. As to the method:
as §1, §2

Consider Lysine carboxymethyl cysteinate [LCC], for which the “HAS3 expression (fold change relative to blank control, normalized to beta-actin)” value in test [1] amounted to 0.84. Moreover, in test [2], the “CD44 expression (fold change relative to blank control, normalized to beta-actin)” value is reported as 1.06.

Values taken from patent US20250032400A1, “PERSONAL CARE COMPOSITION” (Conopco, Inc., d/b/a UNILEVER, priority 2021, published 2025).
